Drawing on patent EP4806898A1, “HETEROARYL DERIVATIVE COMPOUND AND USE THEREOF” (Voronoi Inc., priority 2023, dated 2025), this text covers ΔTm and GI50 for 17 molecules.

The target of one assay is T1, recombinant USP1 protein (Homo sapiens, UniProt O94782, DEL125-138/DEL229-408/DEL608-737).
T1 sequence (O94782 with tags, fused parts or gaps DEL125-138/DEL229-408/DEL608-737): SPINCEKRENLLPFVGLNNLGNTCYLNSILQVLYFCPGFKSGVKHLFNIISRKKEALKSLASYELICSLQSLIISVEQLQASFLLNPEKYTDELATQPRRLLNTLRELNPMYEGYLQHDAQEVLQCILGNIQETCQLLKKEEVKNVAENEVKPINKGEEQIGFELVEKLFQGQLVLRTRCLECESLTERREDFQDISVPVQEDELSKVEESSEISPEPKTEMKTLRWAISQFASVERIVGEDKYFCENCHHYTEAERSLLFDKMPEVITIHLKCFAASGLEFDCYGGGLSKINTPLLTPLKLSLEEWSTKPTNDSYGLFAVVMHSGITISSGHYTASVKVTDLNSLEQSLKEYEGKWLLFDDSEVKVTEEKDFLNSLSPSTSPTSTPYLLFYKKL
The assay can be described thus: Binding affinity to recombinant USP1 protein by differential scanning fluorimetry. The conditions noted are these: read-out: ΔTm (°C). The procedure, abridged: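 USP1 (Δ1-66, Δ125-138, Δ229-408, Δ608-737) at 0.03 mg/mL with dye in 50 mM Tris-HCl pH 8.0, 150 mM NaCl, 2% glycerol, 1 mM DTT; compounds at 100 µM final. Tm read on real-time PCR instrument; ΔTm = Tm with compound minus Tm with DMSO.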

A further assay deals with UWB1.289 cells. The assay can be described thus: Cell proliferation inhibitory activity in BRCA1/2-mutant or HRD-positive cells (Cell Titer-Glo). In kind it is cell-based. The settings on record: read-out: GI50 UWB1.289 BRCA1 mut. The procedure, abridged:
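UWB1.289 cells (1,000/well) in 50% MEBM/50% RPMI1640 exposed to […], final 1.5 nM to 10 µM, for 144 h at 37 °C. Viable cells measured by CellTiter-Glo luminescence; GI50 calculated.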

The mark [1] stands for this setting: compound 100 µM, 0.03 mg/mL USP1 (Δ1-66, Δ125-138, Δ229-408, Δ608-737), Tm with compound minus Tm with DMSO.
The mark [2] stands for this setting: UWB1289, UWB1.289 cells, 144 hours after compound treatment, Cell Titer-Glo, 1.5 nM to 10 µM.

Where two headings read alike, the source gives them in different places.

For `COc1ncnc(C2CC2)c1-c1ncc2cc(C(=O)NCC(C)(C)N)n(Cc3ccc(-c4nc(C(F)(F)F)cn4C(C)C)cc3)c2n1` [Example 118, N-(2-amino-2-methylpropyl)-2-(4-cyclopropyl-6-methoxypyrimidin-5-yl)-7-(4-(1-isopropyl-4-(trifluoromethyl)-1H-imidazol-2-yl)benzyl)-7H-pyrrolo[2,3-d]pyrimidine-6-carboxamide], the thermal shift (ΔTm) at 100 µM at recombinant USP1 protein (setting [1]) is > 5 °C. Also, the GI50 in the assay with UWB1.289 cells (setting [2]) is < 100 nM.

On to `CNC(=O)c1cc2cnc(-c3c(OC(C)C)ncnc3C3CC3)nc2n1Cc1ccc(-c2nc(C(F)(F)F)cn2C(C)C)cc1` [Example 119, 2-(4-cyclopropyl-6-isopropoxypyrimidin-5-yl)-7-(4-(1-isopropyl-4-(trifluoromethyl)-1H-imidazol-2-yl)benzyl)-N-methyl-7H-pyrrolo[2,3-d]pyrimidine-6-carboxamide], for which the thermal shift (ΔTm) at 100 µM on recombinant USP1 protein (setting [1]) was > 5 °C. For the same molecule, the GI50 with UWB1.289 cells (setting [2]) was < 100 nM.

With `COc1ncnc(C2CC2)c1-c1ncc2cc(C(=O)NC3CCN(C4CC4)CC3)n(Cc3ccc(-c4nc(C(F)(F)F)cn4C(C)C)cc3)c2n1` [Example 121, 2-(4-cyclopropyl-6-methoxypyrimidin-5-yl)-N-(1-cyclopropylpiperidin-4-yl)-7-(4-(1-isopropyl-4-(trifluoromethyl)-1H-imidazol-2-yl)benzyl)-7H-pyrrolo[2,3-d]pyrimidine-6-carboxamide], on recombinant USP1 protein (setting [1]), the ΔTm at 100 µM was > 5 °C. The GI50 in the assay with UWB1.289 cells (setting [2]) was < 100 nM.

`COc1ncnc(C2CC2)c1-c1ncc2cc(C(=O)N[C@H]3C[C@H](OC)C3)n(Cc3ccc(-c4nc(C(F)(F)F)cn4C(C)C)cc3)c2n1` [Example 122, 2-(4-cyclopropyl-6-methoxypyrimidin-5-yl)-7-(4-(1-isopropyl-4-(trifluoromethyl)-1H-imidazol-2-yl)benzyl)-N-((1r,3r)-3-methoxycyclobutyl)-7H-pyrrolo[2,3-d]pyrimidine-6-carboxamide]: the ΔTm at 100 µM at recombinant USP1 protein (setting [1]) is > 5 °C. Further, in the assay with UWB1.289 cells (setting [2]), the GI50 lay within 100 to 500 nM.

On to `COc1ncnc(C2CC2)c1-c1ncc2cc(C(=O)N3CC[C@@H](OC)C3)n(Cc3ccc(-c4nc(C(F)(F)F)cn4C(C)C)cc3)c2n1` [Example 123, (R) - (2-(4-cyclopropyl-6-methoxypyrimid in-5-yl)-7-(4-(1-isopropyl-4-(trifluoromethyl)-1H-imidazol-2-yl)benzyl)-7H-pyrrolo[2,3-d]pyrimidin-6-yl) (3-methoxypyrrolidin-1-yl)methanone], for which the ΔTm at 100 µM at recombinant USP1 protein is > 5 °C. Besides, the GI50 in the assay with UWB1.289 cells (UWB1289, 144 h) was 100 to 500 nM.

For `COc1ncnc(C2CC2)c1-c1ncc2cc(C(=O)NC[C@@H]3CCCO3)n(Cc3ccc(-c4nc(C(F)(F)F)cn4C(C)C)cc3)c2n1` [Example 124, (S)-2-(4-cyclopropyl-6-methoxypyrimidin-5-yl)-7-(4-(1-isopropyl-4-(trifluoromethyl)-1H-imidazol-2-yl)benzyl)-N-((tetrahydrofuran-2-yl)methyl)-7H-pyrrolo[2,3-d]pyrimidine-6-carboxamide], the shift in melting temperature (ΔTm) at 100 µM on recombinant USP1 protein (setting [1]) was > 5 °C. In the assay with UWB1.289 cells (setting [2]), the GI50 was < 100 nM.

As to `COc1ncnc(C2CC2)c1-c1ncc2cc(C(=O)NCC3(C)COC3)n(Cc3ccc(-c4nc(C(F)(F)F)cn4C(C)C)cc3)c2n1` [Example 125, 2-(4-cyclopropyl-6-methoxypyrimidin-5-yl)-7-(4-(1-isopropyl-4-(trifluoromethyl)-1H-imidazol-2-yl)benzyl)-N-((3-methyloxetan-3-yl)methyl)-7H-pyrrolo[2,3-d]pyrimidine-6-carboxamide], on recombinant USP1 protein (setting [1]), the ΔTm at 100 µM was > 5 °C. Moreover, the GI50 with UWB1.289 cells (setting [2]) is < 100 nM.

As for `COc1ncnc(C2CC2)c1-c1ncc2cc(C(=O)NC3CCN(CC(C)(C)F)CC3)n(Cc3ccc(-c4nc(C(F)(F)F)cn4C(C)C)cc3)c2n1` [Example 126, 2-(4-cyclopropyl-6-methoxypyrimidin-5-yl)-N-(1-(2-fluoro-2-methylpropyl)piperidin-4-yl)-7-(4-(1-isopropyl-4-(trifluoromethyl)-1H-imidazol-2-yl)benzyl)-7H-pyrrolo[2,3-d]pyrimidine-6-carboxamide], on recombinant USP1 protein (setting [1]), the ΔTm at 100 µM is > 5 °C. For the same molecule, in the assay with UWB1.289 cells (setting [2]), the GI50 is < 100 nM.

Turning to `COc1ncnc(C2CC2)c1-c1ncc2cc(C(=O)NC[C@H]3CCCO3)n(Cc3ccc(-c4nc(C(F)(F)F)cn4C(C)C)cc3)c2n1` [Example 127, (R) -2-(4-cyclopropyl-6-methoxypyrimidin-5-yl)-7-(4-(1-isopropyl-4-(trifluoromethyl)-1H-imidazol-2-yl)benzyl)-N-((tetrahydrofuran-2-yl)methyl)-7H-pyrrolo[2,3-d]pyrimidine-6-carboxamide], the ΔTm at 100 µM at recombinant USP1 protein (setting [1]) is > 5 °C. For the same molecule, in the assay on UWB1.289 cells (setting [2]), the GI50 is < 100 nM.

Regarding `COc1ncnc(C2CC2)c1-c1ncc2cc(C(=O)N3CC[C@H](OC)C3)n(Cc3ccc(-c4nc(C(F)(F)F)cn4C(C)C)cc3)c2n1` [Example 128, (S)-(2-(4-cyclopropyl-6-methoxypyrimidin-5-yl)-7-(4-(1-isopropyl-4-(trifluoromethyl)-1H-imidazol-2-yl)benzyl)-7H-pyrrolo[2,3-d]pyrimidin-6-yl) (3-methoxypyrrolidin-1-yl)methanone], the ΔTm at 100 µM on recombinant USP1 protein (setting [1]) was > 5 °C. Besides, the GI50 in the assay with UWB1.289 cells (setting [2]) is < 100 nM.

Regarding `COc1ncnc(C2CC2)c1-c1ncc2cc(C(=O)N[C@H]3C[C@H]3F)n(Cc3ccc(-c4nc(C(F)(F)F)cn4C(C)C)cc3)c2n1` [Example 129, 2-(4-cyclopropyl-6-methoxypyrimidin-5-yl)-N-((1S,2R)-2-fluorocyclopropyl)-7-(4-(1-isopropyl-4-(trifluoromethyl)-1H-imidazol-2-yl)benzyl)-7H-pyrrolo[2,3-d]pyrimidine-6-carboxamide], the ΔTm at 100 µM at recombinant USP1 protein (setting [1]) was > 5 °C. The GI50 in the assay on UWB1.289 cells (setting [2]) was < 100 nM.

Regarding `CNC(=O)c1cc2cnc(-c3c(OC4CC4)ncnc3C3CC3)nc2n1Cc1ccc(-c2nc(C(F)(F)F)cn2C(C)C)cc1` [Example 130, 2-(4-cyclopropoxy-6-cyclopropylpyrimidin-5-yl)-7-(4-(1-isopropyl-4-(trifluoromethyl)-1H-imidazol-2-yl)benzyl)-N-methyl-7H-pyrrolo[2,3-d]pyrimidine-6-carboxamide], the ΔTm at 100 µM on recombinant USP1 protein (setting [1]) was > 5 °C. For the same molecule, the GI50 in the assay on UWB1.289 cells (setting [2]) was < 100 nM.

Turning to `COc1ncnc(C2CC2)c1-c1ncc2cc(C(=O)N[C@H]3C[C@@H](OC)C3)n(Cc3ccc(-c4nc(C(F)(F)F)cn4C(C)C)cc3)c2n1` [Example 131, 2-(4-cyclopropyl-6-methoxypyrimidin-5-yl)-7-(4-(1-isopropyl-4-(trifluoromethyl)-1H-imidazol-2-yl)benzyl)-N-((1s,3s)-3-methoxycyclobutyl)-7H-pyrrolo[2,3-d]pyrimidine-6-carboxamide], the ΔTm at 100 µM at recombinant USP1 protein (setting [1]) was > 5 °C. In the assay with UWB1.289 cells (setting [2]), the GI50 is < 100 nM.

As for `CCC1(NC(=O)c2cc3cnc(-c4c(OC)ncnc4C4CC4)nc3n2Cc2ccc(-c3nc(C(F)(F)F)cn3C(C)C)cc2)COC1` [Example 132, 2-(4-cyclopropyl-6-methoxypyrimidin-5-yl)-N-(3-ethyloxetan-3-yl)-7-(4-(1-isopropyl-4-(trifluoromethyl)-1H-imidazol-2-yl)benzyl)-7H-pyrrolo[2,3-d]pyrimidine-6-carboxamide], the ΔTm at 100 µM at recombinant USP1 protein (setting [1]) is > 5 °C. The GI50 in the assay on UWB1.289 cells (setting [2]) is < 100 nM.

As for `COc1ncnc(C2CC2)c1-c1ncc2cc(C(=O)NC3CCN(CC4(F)CC4)CC3)n(Cc3ccc(-c4nc(C(F)(F)F)cn4C(C)C)cc3)c2n1` [Example 133, 2-(4-cyclopropyl-6-methoxypyrimidin-5-yl)-N-(1-((1-fluorocyclopropyl)methyl)piperidin-4-yl)-7-(4-(1-isopropyl-4-(trifluoromethyl)-1H-imidazol-2-yl)benzyl)-7H-pyrrolo[2,3-d]pyrimidine-6-carboxamide], the shift in melting temperature (ΔTm) at 100 µM on recombinant USP1 protein (setting [1]) is > 5 °C. Also, the GI50 in the assay on UWB1.289 cells (setting [2]) is < 100 nM.

In the case of `CNC(=O)c1cc2cnc(-c3cccnc3C(C)C)nc2n1Cc1ccc(-c2nc(C(F)(F)F)cn2C(C)C)cc1` [Example 134, 7-(4-(1-isopropyl-4-(trifluoromethyl)-1H-imidazol-2-yl)benzyl)-2-(2-isopropylpyridin-3-yl)-N-methyl-7H-pyrrolo[2,3-d]pyrimidine-6-carboxamide], the thermal shift (ΔTm) at 100 µM at recombinant USP1 protein (setting [1]) was > 5 °C. The concentration for 50% growth inhibition (GI50) with UWB1.289 cells (setting [2]) is < 100 nM.

In the case of `COc1ncnc(C2CC2)c1-c1ncc2cc(C(=O)NC[C@H](C)OC)n(Cc3ccc(-c4nc(C(F)(F)F)cn4C(C)C)cc3)c2n1` [Example 135, (S)-2-(4-cyclopropyl-6-methoxypyrimidin-5-yl)-7-(4-(1-isopropyl-4-(trifluoromethyl)-1H-imidazol-2-yl)benzyl)-N-(2-methoxypropyl) -7H-pyrrolo[2,3-d]pyrimidine-6-carboxamide], at recombinant USP1 protein (setting [1]), the ΔTm at 100 µM was > 5 °C. The GI50 in the assay on UWB1.289 cells (setting [2]) is < 100 nM.
